The values below come from US8722849B2, “Polypeptides” (Novo Nordisk A/S, priority 2011, dated 2014).

What is called half-life is how long it takes for the measured level to halve.

Data set [1] is described as follows: Assay (IX) pK, determination of T½ in mini-pig. Type of data set: in vivo, Göttingen mini-pigs. To be noted: male, Göttingen, iv, 2 nmol/kg; minipig; plasma terminal half-life.
Another data set has as its system food intake. Briefly: Assay (I) efficacy testing on appetite (food intake), ad libitum fed rat model. The format is in vivo, Sprague Dawley (SD) rats. To be noted: 3 nmol/kg. In outline:
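Food consumption was logged per animal every hour up to 7 h and again at 24 h (occasionally 48 h) after a single 0.01–3 mg/kg dose, given sc, po or ip at dark-phase onset. Ad libitum fed SD rats, 200–250 g, kept on inverted light/dark cycle; vehicle group included, outliers removed by Grubbs test.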

The nature of data set [2]: Assay (III) ThT fibrillation assay for physical stability. Type of data set: physicochemical. In outline: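 Freshly prepared formulations, pH-adjusted, with 1 μM ThT; four or eight replicates incubated at 37 °C under 960 rpm orbital shaking. Fluorescence (ex 444/em 485 nm) read every 20 min; […]. Peptide concentration measured by RP-HPLC before and after the run.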

Structures are written as SMILES. Starred links: 1 amine or outer side, 2 acyl side, 3 side chain; linkers in the order of their positions; H or OH if unused. Positions of bridges follow the written chain, without caps; N, C: chain ends. Non-standard residues stand in square brackets, D forms with d. Residues, ends and D or L forms follow the SMILES beside them. *: point of attachment. C20 diacid = O=C(O)CCCCCCCCCCCCCCCCCCC(=O)*; C18 diacid = O=C(O)CCCCCCCCCCCCCCCCC(=O)*; γGlu = O=C(O)[C@H](CCC(=O)[*:2])N[*:1]; Orn = NCCC[C@H](N)C(=O)O; AEEA = NCCOCCOCC(=O)O

In turn, `CC[C@H](C)[C@H](NC(=O)[C@@H]1CCCN1C(=O)CNC(=O)[C@H](Cc1ccccc1)NC(=O)[C@H](CC(N)=O)NC(=O)[C@H](CC(N)=O)NC(=O)[C@H](CO)NC(=O)[C@H](CO)NC(=O)[C@H](Cc1c[nH]cn1)NC(=O)[C@H](Cc1c[nH]cn1)NC(=O)[C@H](CC(C)C)NC(=O)[C@H](Cc1ccccc1)NC(=O)[C@H](CCC(=O)O)NC(=O)[C@H](C)NC(=O)[C@H](CC(C)C)NC(=O)[C@H](CCCNC(=N)N)NC(=O)[C@H](CCC(N)=O)NC(=O)[C@@H](NC(=O)[C@H](C)NC(=O)[C@@H]1CSSC[C@H](NC(=O)[C@H](CCCCN)NC(=O)CC[C@H](NC(=O)CCCCCCCCCCCCCCCCCCC(=O)O)C(=O)O)C(=O)N[C@@H](CC(N)=O)C(=O)N[C@@H]([C@@H](C)O)C(=O)N[C@@H](C)C(=O)N[C@@H]([C@@H](C)O)C(=O)N1)[C@@H](C)O)C(=O)N[C@@H](CC(C)C)C(=O)N1CCC[C@H]1C(=O)N1CCC[C@H]1C(=O)N[C@H](C(=O)N[C@@H](CC(N)=O)C(=O)N[C@H](C(=O)NCC(=O)N[C@@H](CO)C(=O)N[C@@H](CC(N)=O)C(=O)N[C@H](C(=O)N[C@@H](Cc1ccc(O)cc1)C(N)=O)[C@@H](C)O)C(C)C)[C@@H](C)O` [Example 27, N-alpha-[(S)-4-Carboxy-4-(19-carboxynonadecanoylamino)butyryl]-[Glu14,His17]-pramlintide] ({C20 diacid-γGlu}-KCNTATCATQRLAEFLHHSSNNFGPILPPTNVGSNTY-NH2; disulfide 2-7 (inferred)) showed a half-life in data set [1] of 90 h. For the same molecule, in the data set on food intake, the “Food intake reduction 0-24 h 3 nmol/kg (%)” value is reported as 56% and the “Food intake reduction 24-48 h 3 nmol/kg (%)” value is reported as 53%. Moreover, the “ThT pH 4.0 lag time (h)” value in data set [2] (ThT fibrillation assay) is reported as 12.3 h.
Regarding `CC[C@H](C)[C@H](NC(=O)[C@@H]1CCCN1C(=O)CNC(=O)[C@H](Cc1ccccc1)NC(=O)[C@H](CC(N)=O)NC(=O)[C@H](CC(N)=O)NC(=O)[C@H](CO)NC(=O)[C@H](CO)NC(=O)[C@H](Cc1c[nH]cn1)NC(=O)[C@H](CCCNC(=N)N)NC(=O)[C@H](CC(C)C)NC(=O)[C@H](Cc1ccccc1)NC(=O)[C@H](CCC(=O)O)NC(=O)[C@H](C)NC(=O)[C@H](CC(C)C)NC(=O)[C@H](CCCNC(=N)N)NC(=O)[C@H](CCC(N)=O)NC(=O)[C@@H](NC(=O)[C@H](C)NC(=O)[C@@H]1CSSC[C@H](NC(=O)[C@H](CCCCN)NC(=O)CC[C@H](NC(=O)CCCCCCCCCCCCCCCCCCC(=O)O)C(=O)O)C(=O)N[C@@H](CC(N)=O)C(=O)N[C@@H]([C@@H](C)O)C(=O)N[C@@H](C)C(=O)N[C@@H]([C@@H](C)O)C(=O)N1)[C@@H](C)O)C(=O)N[C@@H](CC(C)C)C(=O)N1CCC[C@H]1C(=O)N1CCC[C@H]1C(=O)N[C@H](C(=O)N[C@@H](CC(N)=O)C(=O)N[C@H](C(=O)NCC(=O)N[C@@H](CO)C(=O)N[C@@H](CC(N)=O)C(=O)N[C@H](C(=O)N1CCC[C@H]1C(N)=O)[C@@H](C)O)C(C)C)[C@@H](C)O` [Example 53, N-alpha-[(S)-4-Carboxy-4-(19-carboxynonadecanoylamino)butyryl]-[Glu14,Arg17,Pro37]-pramlintide], the half-life in data set [1] is 98 h. For the same molecule, the “Food intake reduction 0-24 h 3 nmol/kg (%)” value with food intake is on record as 40%. Also, the “Food intake reduction 24-48 h 3 nmol/kg (%)” value in the data set with food intake was 28%. The “ThT pH 4.0 lag time” value in data set [2] (Table 8), in data set [2] (Table 9) and in data set [2] (ThT fibrillation assay) was above 45 h throughout. Further, in data set [2] (ThT fibrillation assay), the “ThT pH 4.0 lag time (h)” value is above 45 h.
Molecule `CC[C@H](C)[C@H](NC(=O)[C@@H]1CCCN1C(=O)CNC(=O)[C@H](Cc1ccccc1)NC(=O)[C@H](CC(N)=O)NC(=O)[C@H](CC(N)=O)NC(=O)[C@H](CO)NC(=O)[C@H](CO)NC(=O)[C@H](Cc1c[nH]cn1)NC(=O)[C@H](Cc1c[nH]cn1)NC(=O)[C@H](CC(C)C)NC(=O)[C@H](Cc1ccccc1)NC(=O)[C@H](CCC(=O)O)NC(=O)[C@H](C)NC(=O)[C@H](CC(C)C)NC(=O)[C@H](CCCNC(=N)N)NC(=O)[C@H](CCC(N)=O)NC(=O)[C@@H](NC(=O)[C@H](C)NC(=O)[C@@H]1CSSC[C@H](NC(=O)[C@H](CCCCN)NC(=O)CC[C@H](NC(=O)CCCCCCCCCCCCCCCCC(=O)O)C(=O)O)C(=O)N[C@@H](CC(N)=O)C(=O)N[C@@H]([C@@H](C)O)C(=O)N[C@@H](C)C(=O)N[C@@H]([C@@H](C)O)C(=O)N1)[C@@H](C)O)C(=O)N[C@@H](CC(C)C)C(=O)N1CCC[C@H]1C(=O)N1CCC[C@H]1C(=O)N[C@H](C(=O)N[C@@H](CC(N)=O)C(=O)N[C@H](C(=O)NCC(=O)N[C@@H](CO)C(=O)N[C@@H](Cc1c[nH]cn1)C(=O)N[C@H](C(=O)N[C@@H](Cc1ccc(O)cc1)C(N)=O)[C@@H](C)O)C(C)C)[C@@H](C)O` [Example 59, N-alpha-[(S)-4-Carboxy-4-(17-carboxyheptadecanoylamino)butyryl]-[Glu14,His17,His35]-pramlintide] ({C18 diacid-γGlu}-KCNTATCATQRLAEFLHHSSNNFGPILPPTNVGSHTY-NH2; disulfide 2-7 (inferred)) gave a half-life in data set [1] of 59 h. Besides, in the data set with food intake, the “Food intake reduction 0-24 h 3 nmol/kg (%)” value stood at 59% and the “Food intake reduction 24-48 h 3 nmol/kg (%)” value is on record as 27%. The “ThT pH 4.0 lag time” value in data set [2] (Table 8) is above 45 h. Moreover, the “ThT pH 4.0 lag time” value in data set [2] (Table 9) is above 45 h. Also, in data set [2] (ThT fibrillation assay), the “ThT pH 4.0 lag time” value is above 45 h and the “ThT pH 4.0 lag time (h)” value is reported as above 45 h.
Molecule `CC[C@H](C)[C@H](NC(=O)[C@@H]1CCCN1C(=O)CNC(=O)[C@H](Cc1ccccc1)NC(=O)[C@H](CC(N)=O)NC(=O)[C@H](CC(N)=O)NC(=O)[C@H](CO)NC(=O)[C@H](CO)NC(=O)[C@H](Cc1c[nH]cn1)NC(=O)[C@H](Cc1c[nH]cn1)NC(=O)[C@H](CC(C)C)NC(=O)[C@H](Cc1ccccc1)NC(=O)[C@H](CCC(=O)O)NC(=O)[C@H](C)NC(=O)[C@H](CC(C)C)NC(=O)[C@H](CCCNC(=N)N)NC(=O)[C@H](CCC(N)=O)NC(=O)[C@@H](NC(=O)[C@H](C)NC(=O)[C@@H]1CSSC[C@H](NC(=O)[C@H](CCCNC(=N)N)NC(=O)CC[C@H](NC(=O)CCCCCCCCCCCCCCCCCCC(=O)O)C(=O)O)C(=O)N[C@@H](CC(N)=O)C(=O)N[C@@H]([C@@H](C)O)C(=O)N[C@@H](C)C(=O)N[C@@H]([C@@H](C)O)C(=O)N1)[C@@H](C)O)C(=O)N[C@@H](CC(C)C)C(=O)N1CCC[C@H]1C(=O)N1CCC[C@H]1C(=O)N[C@H](C(=O)N[C@@H](CC(N)=O)C(=O)N[C@H](C(=O)NCC(=O)N[C@@H](CO)C(=O)N[C@@H](CC(N)=O)C(=O)N[C@H](C(=O)N1CCC[C@H]1C(N)=O)[C@@H](C)O)C(C)C)[C@@H](C)O` [Example 96, N-alpha-[(S)-4-Carboxy-4-(19-carboxynonadecanoylamino)butyryl]-[Arg1,Glu14,His17,Pro37]-pramlintide] ({C20 diacid-γGlu}-RCNTATCATQRLAEFLHHSSNNFGPILPPTNVGSNTP-NH2; disulfide 2-7 (inferred)) showed a half-life in data set [1] of 107 h. In the data set with food intake, the “Food intake reduction 0-24 h 3 nmol/kg (%)” value is given as 69% and the “Food intake reduction 24-48 h 3 nmol/kg (%)” value is recorded as 89%. Besides, the “ThT pH 4.0 lag time” value in data set [2] (Table 8) is given as above 45 h. For the same molecule, the “ThT pH 4.0 lag time” value in data set [2] (Table 9) was above 45 h. Also, in data set [2] (ThT fibrillation assay), the “ThT pH 4.0 lag time” value is listed as above 45 h and the “ThT pH 4.0 lag time (h)” value is listed as above 45 h.
In the case of `CC[C@H](C)[C@H](NC(=O)[C@@H]1CCCN1C(=O)CNC(=O)[C@H](Cc1ccccc1)NC(=O)[C@H](CC(N)=O)NC(=O)[C@H](CC(N)=O)NC(=O)[C@H](CO)NC(=O)[C@H](CO)NC(=O)[C@H](CCCNC(=N)N)NC(=O)[C@H](Cc1c[nH]cn1)NC(=O)[C@H](CC(C)C)NC(=O)[C@H](Cc1ccccc1)NC(=O)[C@H](CCC(=O)O)NC(=O)[C@H](C)NC(=O)[C@H](CC(C)C)NC(=O)[C@H](CCCNC(=N)N)NC(=O)[C@H](CCC(N)=O)NC(=O)[C@@H](NC(=O)[C@H](C)NC(=O)[C@@H]1CSSC[C@H](NC(=O)[C@H](CCCN)NC(=O)[C@@H](CCCNC(=N)N)NC(=O)[C@@H](CCCNC(=N)N)NC(=O)COCCOCCNC(=O)COCCOCCNC(=O)CC[C@H](NC(=O)CCCCCCCCCCCCCCCCC(=O)O)C(=O)O)C(=O)N[C@@H](CC(N)=O)C(=O)N[C@@H]([C@@H](C)O)C(=O)N[C@@H](C)C(=O)N[C@@H]([C@@H](C)O)C(=O)N1)[C@@H](C)O)C(=O)N[C@@H](CC(C)C)C(=O)N1CCC[C@H]1C(=O)N1CCC[C@H]1C(=O)N[C@H](C(=O)N[C@@H](CC(N)=O)C(=O)N[C@H](C(=O)NCC(=O)N[C@@H](CO)C(=O)N[C@@H](CC(N)=O)C(=O)N[C@H](C(=O)N[C@@H](Cc1ccc(O)cc1)C(N)=O)[C@@H](C)O)C(C)C)[C@@H](C)O` [Example 120, N-alpha-[2-(2-{2-[2-(2-{2-[(S)-4-Carboxy-4-(17-carboxyheptadecanoylamino)butyrylamino]ethoxy}ethoxy)acetylamino]ethoxy}ethoxy)acetyl]-D-Arg-D-Arg-[Orn1,Glu14,His17,Arg18]-pramlintide] ({C18 diacid-γGlu-AEEA-AEEA}-[dR][dR][Orn]CNTATCATQRLAEFLHRSSNNFGPILPPTNVGSNTY-NH2; disulfide 4-9 (inferred); C-terminus assumed), in the data set with food intake, the “Food intake reduction 0-24 h 3 nmol/kg (%)” value is listed as 53% and the “Food intake reduction 24-48 h 3 nmol/kg (%)” value came out at 2%. For the same molecule, the “ThT pH 4.0 lag time (h)” value in data set [2] (ThT fibrillation assay) was found to be 22 h.
